From patent US20240217963A1, “RECEPTOR-INTERACTING PROTEIN 1 INHIBITORS, PREPARATIONS, AND USES THEREOF” (SIRONAX LTD., priority 2021, published 2024)

Target: T1, RIP1 (Homo sapiens, UniProt Q13546)
T1 sequence (Q13546 1-671): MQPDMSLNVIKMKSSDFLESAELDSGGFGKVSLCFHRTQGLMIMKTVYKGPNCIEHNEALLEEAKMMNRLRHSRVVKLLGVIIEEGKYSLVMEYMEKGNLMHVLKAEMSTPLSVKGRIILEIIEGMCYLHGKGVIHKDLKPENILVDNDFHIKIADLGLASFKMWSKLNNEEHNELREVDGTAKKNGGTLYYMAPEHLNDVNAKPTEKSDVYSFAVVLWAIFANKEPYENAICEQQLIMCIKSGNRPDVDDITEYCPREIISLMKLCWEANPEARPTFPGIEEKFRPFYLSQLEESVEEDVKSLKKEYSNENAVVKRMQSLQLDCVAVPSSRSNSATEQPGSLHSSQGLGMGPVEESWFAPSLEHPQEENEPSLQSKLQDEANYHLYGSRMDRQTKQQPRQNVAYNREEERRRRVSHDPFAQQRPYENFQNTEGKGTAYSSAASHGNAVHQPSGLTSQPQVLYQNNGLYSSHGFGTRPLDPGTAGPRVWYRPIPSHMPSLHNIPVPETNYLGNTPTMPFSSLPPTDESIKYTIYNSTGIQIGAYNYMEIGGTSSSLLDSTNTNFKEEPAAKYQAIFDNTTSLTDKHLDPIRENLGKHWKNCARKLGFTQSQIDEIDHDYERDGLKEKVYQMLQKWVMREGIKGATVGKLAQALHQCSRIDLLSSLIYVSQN
Assay: Cellular RIP1 inhibitory activity: HT-29 necroptosis (TNFα/SMAC mimetic/zVAD-FMK) CellTiter-Glo viability assay
Assay type: cell-based
Settings: HT-29 cells, TNF-α 10 ng/ml + SMAC mimetic 6 μM + zVAD-FMK 10 μM, 20 hours, geometric mean, read-out: EC50 Values of in vitro Cellular RIP1 Inhibitory Activity
Protocol: Compounds 1-99 (denoted as Cmpd Nos. 1 through 99 in Table 2 below) of the disclosure were tested for binding and cellular RIP1 inhibitory activity following the experimental procedures described below. Cell Seeding • 1. HT-29 cells were checked every day to make sure that they were healthy and growing as expected. They were subjected to sub-culturing when they were approximately 80% confluent. • 2. The culture medium, McCOY's 5 A medium (Gibco, Cat No. 16600-082) with 10% fetal bovine serum or FBS (Gibco, Cat No. 10099-141C), was pre-warmed in a 37° C. water bath for at least 30 min. • 3. When the cells had reached a desired level of confluency of 80% in a T75 flask, the medium was aspirated, and the cells were washed with warm phosphate buffered saline or PBS two times. • 4. 2-3 ml fresh warm trypsin (Gibco, Cat No. 25200-056) solution was added to the washed cells. The flask with the cells was transferred to a 37° C. incubator. • 5. After 5 minutes, the side of the flask was tapped, and the flask was examined under a microscope for detachment of the cells to the flask. If necessary, the cells were kept in the incubator for an additional 5-10 minutes, with occasional tapping, until lifting was complete. • 6. The trypsin reaction was neutralized by transferring 6-9 ml cell culture medium to sterile 15 ml conical tubes, and by centrifuging the cell culture at 300×g for 7 minutes to pellet the cells (supernatant decanted). • 7. The cells were resuspended in fresh cell culture medium and the cell counting was performed using a hemocytometer. • 8. 100 μl of the resuspended cell culture medium containing ˜5,000 cells were transferred into each well of the sterile 96-well cell culture plate (Corning 3903) and cultured overnight at 37° C. with 5% CO2. Compound Titration and Treatment • 1. All test compounds were dissolved in DMSO (Dimethyl sulfoxide) to create a 20 mM stock. • 2. 3 μl of each compound 20 mM stock was mixed with 27 μl DMSO, and the compound solution was further diluted at a titration ratio of 1:3 (20 μl compound solution+40 μl DMSO) till the 10 points end. • 3. All culture medium was removed from assay plates filled with HT-29 cell cultures. […] 0.5 μL of the diluted compound solution was added to the corresponding 96-well assay plates. • 5. The assay plates were incubated for 20 hours at 37° C. with 5% CO2. Cell Viability Detection • 1. The CellTiter-Glo® Luminescent Cell Viability Assay was employed to detect the ATP levels of viable HT-29 cells. • 2. The CellTiter-Glo® buffer and the lyophilized substrate were equilibriated to room temperature prior to use. • 3. The CellTiter-Glo® substrate was resuspended with CellTiter-Glo® buffer, then mixed by gently vortexing to obtain a homogeneous solution. • 4. 20 μl the enzyme/substrate mixture was transferred by multi-channel pipetting into 96-well assay plates. • 5. The assay plates were placed on an orbital shaker and the contents were shaken for 3 minutes to induce cell lysis. • 6. The assay plates were incubated at room temperature for 10 minutes to stabilize the luminescent signal. • 7. The luminescence signals were read and recorded with EnVision. • 8. The geometric mean EC50 values were calculated from 10 points response dose with duplicates. In Table 2, activity is provided as follows: +++=0.1 nM≤EC50<100 nM; ++=100 nM≤EC50<1000 nM; +=1000 nM≤EC50<10000 nM.

Compound | EC50 [nM]
Cc1cnn(C)c1-c1nc(N2CCC(C(=O)N(O)Cc3cncc(C#N)c3)CC2)ncc1F [Compound 52, N-((5-cyanopyridin-3-yl)methyl)-1-(4-(1,4-dimethyl-1H-pyrazol-5-yl)-5-fluoropyrimidin-2-yl)-N-hydroxypiperidine-4-carboxamide] | 0.1 to 100
Cc1cnn(C)c1-c1cc(OC2CC(C(=O)N(O)Cc3cc(F)cc(F)c3)C2)c(F)cn1 (centres unmarked) [Compound 53] | 0.1 to 100
Cc1nc(C)c(CNC(=O)C2CCN(c3ncc(F)c(-c4c(C)cnn4C)n3)CC2)s1 [Compound 22, 1-(4-(1,4-dimethyl-1H-pyrazol-5-yl)-5-fluoropyrimidin-2-yl)-N-((2,4-dimethylthiazol-5-yl)methyl)piperidine-4-carboxamide] | 100 to 1000
Cc1cnn(C)c1-c1nc(N2CCC(C(=O)N(O)Cc3ncccc3Cl)CC2)ncc1F [Compound 9, N-((3-chloropyridin-2-yl)methyl)-1-(4-(1,4-dimethyl-1H-pyrazol-5-yl)-5-fluoropyrimidin-2-yl)-N-hydroxypiperidine-4-carboxamide] | 0.1 to 100
Cc1cnn(C)c1-c1cc(N2CCC(C(=O)NCc3nccs3)CC2)c(F)cn1 [Compound 63, 1-(2-(1,4-dimethyl-1H-pyrazol-5-yl)-5-fluoropyridin-4-yl)-N-(thiazol-2-ylmethyl)piperidine-4-carboxamide] | 100 to 1000
O=C(C1CCN(c2ncc(F)cn2)CC1)N(O)Cc1cc(F)cc(F)c1 [Compound 30, N-(3,5-difluorobenzyl)-1-(5-fluoropyrimidin-2-yl)-N-hydroxypiperidine-4-carboxamide] | 100 to 1000
Cc1ncc(CNC(=O)C2CCN(c3ncc(F)c(-c4c(C)cnn4C)n3)CC2)s1 [Compound 50, 1-(4-(1,4-dimethyl-1H-pyrazol-5-yl)-5-fluoropyrimidin-2-yl)-N-((2-methylthiazol-5-yl)methyl)piperidine-4-carboxamide] | 100 to 1000
Cc1cnn(C)c1-c1cc(N2CCC(C(=O)N(O)Cc3cc(F)cc(F)c3)CC2)ncn1 [Compound 41, N-(3,5-difluorobenzyl)-1-(6-(1,4-dimethyl-1H-pyrazol-5-yl)pyrimidin-4-yl)-N-hydroxypiperidine-4-carboxamide] | 0.1 to 100
Cc1cnn(C)c1-c1nc(N2CCC(C(=O)N(C)Cc3nc(C)c(C)s3)CC2)ncc1F [Compound 90, 1-(4-(1,4-dimethyl-1H-pyrazol-5-yl)-5-fluoropyrimidin-2-yl)-N-((4,5-dimethylthiazol-2-yl)methyl)-N-methylpiperidine-4-carboxamide] | 0.1 to 100
Cc1cnn(C)c1-c1nc(N2CCC(C(=O)N(C)Cc3cc(F)cc(F)c3)CC2)ncc1F [Compound 85, N-(3,5-difluorobenzyl)-1-(4-(1,4-dimethyl-1H-pyrazol-5-yl)-5-fluoropyrimidin-2-yl)-N-methylpiperidine-4-carboxamide] | 0.1 to 100
Cc1cnn(C)c1-c1nc(N2CCC(C(=O)NCc3cncs3)CC2)ncc1F [Compound 58] | 100 to 1000
CCN(Cc1cc(F)cc(F)c1)C(=O)C1CCN(c2cc(-c3c(C)cnn3C)ncn2)CC1 [Compound 89, N-(3,5-difluorobenzyl)-1-(6-(1,4-dimethyl-1H-pyrazol-5-yl)pyrimidin-4-yl)-N-ethylpiperidine-4-carboxamide] | 100 to 1000
Cc1cnn(C)c1-c1nc(N2CCC(C(=O)NCC3CCCCC3)CC2)ncc1F [Compound 28, N-(cyclohexylmethyl)-1-(4-(1,4-dimethyl-1H-pyrazol-5-yl)-5-fluoropyrimidin-2-yl)piperidine-4-carboxamide] | 0.1 to 100
Cc1cnn(C)c1-c1nc(N2CCC(C(=O)N(O)Cc3cccnc3F)CC2)ncc1F [Compound 25, 1-(4-(1,4-dimethyl-1H-pyrazol-5-yl)-5-fluoropyrimidin-2-yl)-N-((2-fluoropyridin-3-yl)methyl)-N-hydroxypiperidine-4-carboxamide] | 0.1 to 100
Cc1nc(C)n(-c2nc(N3CCC(C(=O)NCc4cc(F)cc(F)c4)CC3)ncc2F)n1 [Compound 2, N-(3,5-difluorobenzyl)-1-(4-(3,5-dimethyl-1H-1,2,4-triazol-1-yl)-5-fluoropyrimidin-2-yl)piperidine-4-carboxamide] | 0.1 to 100
Cc1nnc(CN(C)C(=O)C2CCN(c3ncc(F)c(-c4c(C)cnn4C)n3)CC2)s1 [Compound 87, 1-(4-(1,4-dimethyl-1H-pyrazol-5-yl)-5-fluoropyrimidin-2-yl)-N-methyl-N-((5-methyl-1,3,4-thiadiazol-2-yl)methyl)piperidine-4-carboxamide] | 100 to 1000
Cc1cnn(C)c1-c1nc(N2CCC(C(=O)N(O)Cc3nccn3C)CC2)ncc1F [Compound 39, 1-(4-(1,4-dimethyl-1H-pyrazol-5-yl)-5-fluoropyrimidin-2-yl)-N-hydroxy-N-((1-methyl-1H-imidazol-2-yl)methyl)piperidine-4-carboxamide] | 1000 to 10000
CCN(Cc1nccs1)C(=O)C1CCN(c2ncc(F)c(-c3c(C)cnn3C)n2)CC1 [Compound 96, 1-(4-(1,4-dimethyl-1H-pyrazol-5-yl)-5-fluoropyrimidin-2-yl)-N-ethyl-N-(thiazol-2-ylmethyl)piperidine-4-carboxamide] | 0.1 to 100
Cc1cnn(C)c1-c1nc(N2CCC(C(=O)N(C)Cc3cnn(C)c3)CC2)ncc1F [Compound 83, 1-(4-(1,4-dimethyl-1H-pyrazol-5-yl)-5-fluoropyrimidin-2-yl)-N-methyl-N-((1-methyl-1H-pyrazol-4-yl)methyl)piperidine-4-carboxamide] | 100 to 1000
[2H]C([2H])([2H])N(Cc1nc(C)cs1)C(=O)C1CCN(c2ncc(F)c(-c3c(C)cnn3C)n2)CC1 [Compound 78, 1-(4-(1,4-dimethyl-1H-pyrazol-5-yl)-5-fluoropyrimidin-2-yl)-N-(methyl-d3)-N-((4-methylthiazol-2-yl)methyl)piperidine-4-carboxamide] | 0.1 to 100
Cc1cnn(C)c1-c1nc(N2CCC(C(=O)N(O)Cc3cnn(C)c3)CC2)ncc1F [Compound 3, 1-(4-(1,4-dimethyl-1H-pyrazol-5-yl)-5-fluoropyrimidin-2-yl)-N-hydroxy-N-((1-methyl-1H-pyrazol-4-yl)methyl)piperidine-4-carboxamide] | 0.1 to 100
Cc1cnn(C)c1-c1nc(N2CCC(C(=O)NCc3nccs3)CC2)ncc1F [Compound 59, 1-(4-(1,4-dimethyl-1H-pyrazol-5-yl)-5-fluoropyrimidin-2-yl)-N-(thiazol-2-ylmethyl)piperidine-4-carboxamide] | 100 to 1000
CCN(Cc1cc(F)cc(F)c1F)C(=O)C1CCN(c2ncc(F)c(-c3c(C)cnn3C)n2)CC1 [Compound 67, 1-(4-(1,4-dimethyl-1H-pyrazol-5-yl)-5-fluoropyrimidin-2-yl)-N-ethyl-N-(2,3,5-trifluorobenzyl)piperidine-4-carboxamide] | 0.1 to 100
